Assay results from ChEMBL document CHEMBL4765358, “Discovery of highly potent and selective antiparasitic new oxadiazole and hydroxy-oxindole small molecule hybrids” (Eur J Med Chem, 2020).

Assays:
Trypanosoma cruzi [1] = experiment: Antitrypanosomal activity against Trypanosoma cruzi (MHOM/CH/00/Tulahuen C2, lacZ) amastigotes infected in HFF-1 cells assessed as reduction in parasite growth at 300 uM incubated for 120 hrs by CPRG/Igepal substrate based photometric method relative to control; assay type: functional; details: MHOM/CH/00/Tulahuen C2, HFF-1
Trypanosoma cruzi [2] = experiment: Antitrypanosomal activity against Trypanosoma cruzi (MHOM/CH/00/Tulahuen C2, lacZ) amastigotes infected in HFF-1 cells assessed as reduction in parasite growth at 75 uM incubated for 120 hrs by CPRG/Igepal substrate based photometric method relative to control; assay type: functional; details: MHOM/CH/00/Tulahuen C2, HFF-1
Leishmania infantum = experiment: Antileishmanial activity against Leishmania infantum MHOM/MA/67/ITMAP-263 infected in THP1 cells assessed as reduction in parasite growth incubated for 120 hrs by Giemsa staining based inverted microscopic analysis; assay type: functional, organism-based; details: MHOM/MA/67/ITMAP-263, THP-1, 120 h
[3] = Cytotoxicity against human HFF-1 cells assessed as reduction in cell viability incubated for 120 hrs by MTS assay; assay type: cell-based
[4] = Cytotoxicity against human HepG2 cells assessed as reduction in cell viability incubated for 120 hrs by MTS assay; assay type: cell-based
Trypanosoma cruzi [5] = experiment: Antitrypanosomal activity against Trypanosoma cruzi (MHOM/CH/00/Tulahuen C2, lacZ) amastigotes infected in HFF-1 cells assessed as reduction in parasite growth at 150 uM incubated for 120 hrs by CPRG/Igepal substrate based photometric method relative to control; assay type: functional; details: MHOM/CH/00/Tulahuen C2, HFF-1
Trypanosoma cruzi [6] = experiment: Antitrypanosomal activity against Trypanosoma cruzi (MHOM/CH/00/Tulahuen C2, lacZ) amastigotes infected in HFF-1 cells assessed as reduction in parasite growth incubated for 120 hrs by CPRG/Igepal substrate based photometric method; assay type: functional, organism-based; details: MHOM/CH/00/Tulahuen C2, HFF-1, 120 h

| Compound | inhibition at 300 µM (Trypanosoma cruzi [1]) | inhibition at 75 µM (Trypanosoma cruzi [2]) | IC50 (Leishmania infantum) | CC50 at 120 h [3] | CC50 at 120 h [4] | inhibition at 150 µM (Trypanosoma cruzi [5]) | IC50 (Trypanosoma cruzi [6]) |
| --- | --- | --- | --- | --- | --- | --- | --- |
| C=CCOC1(C(=C)c2nc(-c3ccccc3)no2)C(=O)N(CC)c2c(Br)cccc21 (configuration not stated) | 100% | 93.8% | 4.86 µM | 20.3 µM | 60.6 µM | 100% | 6.3 µM |
| C=C(c1nc(-c2ccccc2)no1)C(O)c1cccc(Cl)c1 (configuration not stated) | 100% | 90.5% | 7.76 µM | > 64 µM | 20.2 µM | 98.6% | 6.2 µM |
| C=C(c1nc(-c2ccccc2)no1)C1(O)C(=O)N(CC)c2ccc([N+](=O)[O-])cc21 (configuration not stated) | 100% | 78.9% | 5.13 µM | > 64 µM | 3.61 µM | 85.4% | > 6.7 µM |
| C=C(c1nc(-c2ccccc2)no1)C(O)c1cccnc1 (configuration not stated) | 100% | 89.5% | 8.51 µM | > 64 µM | 19 µM | 99.6% | 2.2 µM |
| C=C(c1nc(-c2ccccc2)no1)C1(O)C(=O)N(CC)c2ccc(Br)cc21 (configuration not stated) | 100% | 100% | 3.73 µM | > 64 µM | 11.5 µM | 100% | 2.2 µM |
| C=C(c1nc(-c2ccccc2)no1)C1(O)C(=O)N(CC)c2ccccc21 (configuration not stated) | 100% | 100% | 7.28 µM | > 64 µM | 26.8 µM | 100% | 2.3 µM |
